System: HaloEnzyme-GFP-expressing HeLa cell line
Assay: Chloroalkane Penetration Assay (CAPA), cytosolic access
Format: cell-based
Description: FIG. 1A provides a schematic showing the experimental procedure of CAPA, which uses a HaloEnzyme-GFP-expressing HeLa cell line. […] For CAPA, cells are pre-treated with vehicle or peptide, washed, and chased with HTag-TAMRA. Cells treated with cell-penetrant molecules have had their HaloEnzyme blocked, thus preventing the HTag-TAMRA from covalently labeling the cells. In this schematic, the molecule of interest is a peptide.
FIG. 1C provides a graph showing the dose-dependent response curve of HTag-TAMRA signal after pre-incubation with different concentrations of HTag-cTMP, HTag-DD5o, and the negatively charged, linear variant HTag-DD5-neg. Data was normalized using the values obtained for vehicle (0% HTag-TAMRA signal inhibition) and for vehicle with no HTag-TAMRA added (100% signal inhibition). Points are means from three independent experiments and error bars show standard deviation.
The CAPA method uses a cell line that stably expresses a cytosolically-oriented protein as a fusion with GFP and Haloenzyme. Haloenzyme is a modified bacterial chloroalkane dehalogenase that covalently labels itself with the small, otherwise inert Haloligand functional group. If an exogenously added molecule bearing the Haloligand (a small chloroalkane) reaches the cytosol, it reacts exclusively with the Haloenzyme and blocks its active site. Following this incubation period, the amount of unreacted Haloenzyme was measured by chasing with a Haloligand-bearing dye (here, Htag-TAMRA). The relative amount of red cellular fluorescence after this chase was then quantified by flow cytometry. The red signal reported directly on the amount of free Haloenzyme, which is inversely proportional to the degree to which the added molecule accessed the cytoplasm during the incubation period.
Halo-GFP-Mitochondrial targeted (Mito.)+mCherry-dihydrofolate reductase (DHFR) HeLa cells were obtained from the Chenoweth Lab as described by (Ballister et al., Nat. Commun. 2014. 5, 1-9), which is incorporated herein by reference. The expression vector used for the incorporation of GFP-Haloenzyme is shown at FIG. 3. Cells were cultured using DMEM+10% FBS+1% Pen/Strep+1 μg/mL puromycin. For experiments, cells were seeded in a 24-well plate the day before at 1.0×10^5 cells/well. Materials for cell culture were purchased from Thermo Scientific.
Cells were rinsed 1× with PBS, then treated with peptides in acidified Opti-MEM (0.15% 6N HCl) for 4 hours. Media was aspirated and cells were washed for 30 min with phenol red-free DMEM+10% FBS+1% pen/strep. Cells were chased with 5 μM HTag-TAMRA (Promega) in phenol red-free DMEM+10% FBS+1% pen/strep for 30 min. Cells were washed for 15 min with phenol red-free DMEM+10% FBS+1% pen/strep. Cells were rinsed once with phosphate buffered saline (PBS), then trypsinized and transferred to 1.5 mL Eppendorf tubes. Cells were pelleted and washed twice with PBS. Cell pellet was resuspended in 250 μL of PBS and 200 μL were transferred to 96-well plate for flow cytometry analysis. Data was gated for live cells measuring 10,000 cells per sample. Mean fluorescence intensity was obtained in the Yellow channel for HTag-TAMRA, and data was normalized. Background yellow fluorescence was observed both by flow cytometry and microscopy due to the constituent expression of mCherry-DHFR, but the signal observed for HTag-TAMRA-treated cells was 10-fold higher than background.

[1] = 50 μM inhibitor for 1 hr, then biomolecule 4 hr at 37° C., FIG. 5D

effect of chlorpromazine on cytosolic penetration [1] | time course of cytosolic penetration (FIG. 5A) | SMILES | cytosolic penetration at 37° C. versus 4° C. | effect of EIPA on cytosolic penetration [1]
 |  | N=C(N)NCCC[C@H](NC(=O)[C@H](CCCNC(=N)N)NC(=O)[C@H](CCCNC(=N)N)NC(=O)[C@H](CCCNC(=N)N)NC(=O)[C@H](CCCNC(=N)N)NC(=O)[C@H](CCCNC(=N)N)NC(=O)[C@H](CCCNC(=N)N)NC(=O)[C@H](CCCNC(=N)N)NC(=O)[C@H](CCCNC(=N)N)NC(=O)CCC(=O)NCCOCCOCCCCCCCl)C(N)=O [Arg9] | significantly greater at 37 °C compared to 4 °C | no significant reduction in cytosolic penetration
no effect | time-dependent cytosolic penetration | N[C@@H](Cc1c[nH]c2ccccc12)C(=O)O [Trp] |  | no significant reduction in cytosolic penetration
